These results are taken from ChEMBL document CHEMBL5523770 (J Med Chem, 2024).

Where only a bound is given, the exact number is not on record here.

In general, IC50 refers to the concentration that inhibits the measured activity by half. The half-life is the time in which the quantity being followed falls by half.

The target in data set [1] is T1, Nuclear receptor subfamily 1 group I member 3 (Homo sapiens, UniProt Q14994).
T1 sequence (Q14994 whole entry): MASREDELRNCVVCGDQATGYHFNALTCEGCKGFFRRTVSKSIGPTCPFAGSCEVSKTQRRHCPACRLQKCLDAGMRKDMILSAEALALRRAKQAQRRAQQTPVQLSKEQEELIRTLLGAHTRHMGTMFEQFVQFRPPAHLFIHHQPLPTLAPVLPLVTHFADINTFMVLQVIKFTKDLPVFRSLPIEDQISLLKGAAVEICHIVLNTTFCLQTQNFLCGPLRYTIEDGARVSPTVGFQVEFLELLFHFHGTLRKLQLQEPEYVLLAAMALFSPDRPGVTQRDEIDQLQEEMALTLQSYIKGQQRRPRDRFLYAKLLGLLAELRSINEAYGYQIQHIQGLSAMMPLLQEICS
The data set can be described thus: Inverse agonist activity at human CAR transfected in HEK293T cells incubated for 16 hrs by firefly/renilla based Dual-Glo luciferase assay. It counts as cell-based.

Data set [2] addresses T2, Nuclear receptor subfamily 1 group I member 2 (Homo sapiens, UniProt O75469).
T2 sequence (O75469 whole entry): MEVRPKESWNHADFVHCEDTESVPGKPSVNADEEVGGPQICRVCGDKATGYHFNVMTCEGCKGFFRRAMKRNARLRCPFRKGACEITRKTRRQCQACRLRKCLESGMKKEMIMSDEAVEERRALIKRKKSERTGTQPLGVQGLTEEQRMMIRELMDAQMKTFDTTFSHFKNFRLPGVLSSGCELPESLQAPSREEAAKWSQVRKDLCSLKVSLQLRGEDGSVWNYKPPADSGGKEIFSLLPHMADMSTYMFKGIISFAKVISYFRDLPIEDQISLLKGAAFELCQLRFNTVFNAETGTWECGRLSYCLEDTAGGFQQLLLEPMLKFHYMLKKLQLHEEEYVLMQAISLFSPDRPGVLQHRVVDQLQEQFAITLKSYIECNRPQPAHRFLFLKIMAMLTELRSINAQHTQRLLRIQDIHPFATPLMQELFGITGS
As to the kind of experiment: Inverse agonist activity at human PXR transfected in HEK293T cells incubated for 16 hrs by firefly/renilla based Dual-Glo luciferase assay. It counts as cell-based.

For data set [3], the target named is Nuclear receptor subfamily 4 group A member 3 (Homo sapiens, UniProt Q92570). The data set can be described thus: Inverse agonist activity at human NOR-1 (393 to 626 residues) transfected in HEK293T cells incubated for 16 hrs by firefly/renilla based Dual-Glo luciferase assay. It counts as cell-based.
Chain of Nuclear receptor subfamily 4 group A member 3 (Q92570 whole entry, the tested form may be a part): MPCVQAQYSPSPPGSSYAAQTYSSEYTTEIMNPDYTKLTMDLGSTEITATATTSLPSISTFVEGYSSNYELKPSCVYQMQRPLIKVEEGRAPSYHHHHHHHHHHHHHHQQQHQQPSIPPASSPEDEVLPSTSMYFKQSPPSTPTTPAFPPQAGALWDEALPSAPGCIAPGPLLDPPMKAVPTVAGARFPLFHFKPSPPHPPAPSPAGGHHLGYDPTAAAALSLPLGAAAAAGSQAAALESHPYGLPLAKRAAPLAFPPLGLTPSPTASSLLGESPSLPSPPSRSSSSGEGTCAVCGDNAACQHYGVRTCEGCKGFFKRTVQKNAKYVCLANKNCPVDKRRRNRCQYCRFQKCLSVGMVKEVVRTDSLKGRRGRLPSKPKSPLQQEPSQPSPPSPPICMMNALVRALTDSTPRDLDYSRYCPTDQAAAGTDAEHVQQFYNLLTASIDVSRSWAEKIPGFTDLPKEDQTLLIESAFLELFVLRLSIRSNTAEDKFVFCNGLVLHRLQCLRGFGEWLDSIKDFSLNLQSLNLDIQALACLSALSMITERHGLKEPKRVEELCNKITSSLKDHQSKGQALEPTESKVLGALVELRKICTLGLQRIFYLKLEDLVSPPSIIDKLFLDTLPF
Data set [4] in a line: in vitro. The following applies: male, Sprague-Dawley, rat, liver microsomes.
In data set [5] the target is Nuclear receptor subfamily 4 group A member 2 (Homo sapiens, UniProt P43354). The data set can be described thus: Inverse agonist activity at Gal4-fused human […] Nurr1 LBD transfected in HEK293T cells assessed as suppression of Nurr1 activation incubated for 16 hrs by firefly/renilla based Dual-Glo luciferase assay. It counts as cell-based.
Chain of Nuclear receptor subfamily 4 group A member 2 (P43354 whole entry, the tested form may be a part): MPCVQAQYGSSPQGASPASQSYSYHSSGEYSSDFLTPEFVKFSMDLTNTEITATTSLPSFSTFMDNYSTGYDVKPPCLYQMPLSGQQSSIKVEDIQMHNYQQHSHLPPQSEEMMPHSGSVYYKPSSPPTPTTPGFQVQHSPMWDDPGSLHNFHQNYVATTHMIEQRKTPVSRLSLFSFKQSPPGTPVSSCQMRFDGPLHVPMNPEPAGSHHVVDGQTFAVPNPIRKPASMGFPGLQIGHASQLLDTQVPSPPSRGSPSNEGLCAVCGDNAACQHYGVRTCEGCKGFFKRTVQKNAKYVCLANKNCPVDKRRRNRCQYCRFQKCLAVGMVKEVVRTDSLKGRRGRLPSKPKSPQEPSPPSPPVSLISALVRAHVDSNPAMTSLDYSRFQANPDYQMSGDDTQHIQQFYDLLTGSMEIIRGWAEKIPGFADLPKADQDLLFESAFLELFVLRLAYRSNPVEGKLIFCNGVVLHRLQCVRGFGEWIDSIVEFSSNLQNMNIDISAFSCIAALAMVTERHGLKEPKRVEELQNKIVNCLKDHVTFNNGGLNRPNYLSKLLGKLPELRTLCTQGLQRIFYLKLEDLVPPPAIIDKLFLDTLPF

On to `CN(C)C(=O)CCc1nc(-c2ccccc2)c(-c2ccccc2Cl)o1`, for which the outcome in data set [1] and in data set [2] was Active. Further, the IC50 in data set [3] amounted to 29 µM. `CN(C)C(=O)/C=C/c1nc(-c2ccccc2)c(-c2ccccc2)o1` had a half-life at 1 h, 10 µM in data set [4] of 30 min. Consider `O=C(O)/C=C/c1nc(-c2ccccc2)c(-c2ccccc2)o1`, for which, in data set [2], the outcome was Active. The same molecule yielded an IC50 in data set [3] of 3.8 µM. Turning to `Cc1cccc(-c2oc(CCC(=O)O)nc2-c2ccccc2)c1`, the IC50 in data set [5] was more than 50 µM.

With `CC(C)NCC(O)COc1cccc2ccccc12` (stereo not drawn) [PROPRANOLOL], the half-life at 1 h, 10 µM in data set [4] was determined as 64 min.
